From US8685970B2, “Quinolines and related analogs as sirtuin modulators” (GlaxoSmithKline, LLC, priority 2008, dated 2014)

What follows are compounds tested against T1, SIRT1 (Homo sapiens, UniProt Q96EB6) (assay: Mass spectrometry based SIRT1 deacetylation assay (activation)). Settings: 10 nM SIRT1, 0.5 μM peptide substrate, 120 μM βNAD+, 25 min at 25° C.
T1 sequence (Q96EB6 1-747): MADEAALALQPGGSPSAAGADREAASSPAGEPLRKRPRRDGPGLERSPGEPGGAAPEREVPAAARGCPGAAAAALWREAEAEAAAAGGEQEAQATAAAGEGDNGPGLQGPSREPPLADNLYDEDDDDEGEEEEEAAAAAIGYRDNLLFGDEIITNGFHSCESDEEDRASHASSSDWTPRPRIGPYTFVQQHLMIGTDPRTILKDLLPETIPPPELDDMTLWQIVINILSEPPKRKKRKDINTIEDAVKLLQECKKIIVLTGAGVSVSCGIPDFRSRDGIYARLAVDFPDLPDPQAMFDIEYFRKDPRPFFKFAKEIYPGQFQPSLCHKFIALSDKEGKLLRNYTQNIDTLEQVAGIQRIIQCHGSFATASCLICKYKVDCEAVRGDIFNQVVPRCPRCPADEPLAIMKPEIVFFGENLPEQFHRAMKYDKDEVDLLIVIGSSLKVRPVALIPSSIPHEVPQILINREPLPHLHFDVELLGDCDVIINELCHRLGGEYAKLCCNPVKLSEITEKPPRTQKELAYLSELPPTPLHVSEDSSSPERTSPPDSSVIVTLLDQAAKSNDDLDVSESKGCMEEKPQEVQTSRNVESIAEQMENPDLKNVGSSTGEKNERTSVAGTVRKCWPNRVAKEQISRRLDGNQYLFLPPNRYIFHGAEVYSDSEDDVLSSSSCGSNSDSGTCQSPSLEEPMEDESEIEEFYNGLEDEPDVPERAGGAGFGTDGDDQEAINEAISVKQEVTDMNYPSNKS
Type: biochemical
From the text: A mass spectrometry based assay was used to identify modulators of SIRT1 activity. The mass spectrometry based assay utilizes a peptide having 20 amino acid residues as follows: Ac-EE-K (biotin)-GQSTSSHSK (Ac)N1eSTEG-K(5TMR)-EE-NH2 (SEQ ID NO: 1) wherein K(Ac) is an acetylated lysine residue and Nle is a norleucine. The peptide is labeled with the fluorophore 5TMR (excitation 540 nm/emission 580 nm) at the C-terminus. The sequence of the peptide substrate is based on p53 with several modifications. In addition, the methionine residue naturally present in the sequence was replaced with the norleucine because the methionine may be susceptible to oxidation during synthesis and purification.
The mass spectrometry assay is conducted as follows: 0.5 μM peptide substrate and 120 μM βNAD^+ is incubated with 10 nM SIRT1 for 25 minutes at 25° C. in a reaction buffer (50 mM Tris-acetate pH 8, 137 mM NaCl, 2.7 mM KCl, 1 mM MgCl2, 5 mM DTT, 0.05% BSA). Test compounds may be added to the reaction as described above. The SirT1 gene is cloned into a T7-promoter containing vector and transformed into BL21(DE3). After the 25 minute incubation with SIRT1, 10 μL of 10% formic acid is added to stop the reaction. Reactions are sealed and frozen for later mass spec analysis. Determination of the mass of the substrate peptide allows for precise determination of the degree of acetylation (i.e. starting material) as compared to deacetylated peptide (product).
A control for inhibition of sirtuin activity is conducted by adding 1 μL of 500 mM nicotinamide as a negative control at the start of the reaction (e.g., permits determination of maximum sirtuin inhibition). A control for activation of sirtuin activity is conducted using 10 nM of sirtuin protein, with 1 μL of DMSO in place of compound, to determine the amount of deacetylation of the substrate at a given timepoint within the linear range of the assay. This timepoint is the same as that used for test compounds and, within the linear range, the endpoint represents a change in velocity.
For the above assay, SIRT1 protein was expressed and purified as follows. The SirT1 gene was cloned into a T7-promoter containing vector and transformed into BL21(DE3). The protein was expressed by induction with 1 mM IPTG as an N-terminal His-tag fusion protein at 18° C. overnight and harvested at 30,000×g. Cells were lysed with lysozyme in lysis buffer (50 mM Tris-HCl, 2 mM Tris[2-carboxyethyl]phosphine (TCEP), 10 μM ZnCl2, 200 mM NaCl) and further treated with sonication for 10 min for complete lysis. The protein was purified over a Ni-NTA column (Amersham) and fractions containing pure protein were pooled, concentrated and run over a sizing column (Sephadex S200 26/60 global). The peak containing soluble protein was collected and run on an Ion-exchange column (MonoQ). Gradient elution (200 mM-500 mM NaCl) yielded pure protein. This protein was concentrated and dialyzed against dialysis buffer (20 mM Tris-HCl, 2 mM TCEP) overnight. The protein was aliquoted and frozen at −80° C. until further use.
Sirtuin modulating compounds that activated SIRT1 were identified using the assay described above and are shown below in Table 1. The EC1.5 values represent the concentration of test compounds that result in 150% activation of SIRT1. The EC1.5 values for the activating compounds are represented by A (EC1.5<1.0 uM), B (EC1.5 1-25 uM), C (EC1.5>25 uM). The percent maximum fold activation is represented by A (Fold activation >200%) or B (Fold Activation <200%). “NT” indicates the compound was not tested in a particular assay.
For `Cc1cnc(NC(=O)c2cccc3ccc(-c4cccnc4)nc23)s1` [Compound 241], the “% Fold Act. (percent maximum fold activation)” value was “B (Fold Activation <200%)” and the “EC1.5 (concentration of test compound that results in 150% activation of SIRT1)” value was “A (EC1.5<1.0 uM)”.
In the case of `O=C(Nc1cccc2ccc(-c3cccc(C(F)(F)F)c3)nc12)c1cccc(OCCN2CCOCC2)c1` [Compound 318], the “EC1.5 (concentration of test compound that results in 150% activation of SIRT1)” value was “C (EC1.5>25 uM)”.
In the case of `O=C(Nc1cccc(CN2CCOCC2)c1)c1cccc2ccc(-c3cccc(C(F)F)c3)nc12` [Compound 286], the “% Fold Act. (percent maximum fold activation)” value was “A (Fold activation >200%)” and the “EC1.5 (concentration of test compound that results in 150% activation of SIRT1)” value was “A (EC1.5<1.0 uM)”.
In the case of `O=C(Nc1nncs1)c1cccc2ccc(-c3cccc(N4CCOCC4)c3)nc12` [Compound 251], the “% Fold Act. (percent maximum fold activation)” value was “A (Fold activation >200%)” and the “EC1.5 (concentration of test compound that results in 150% activation of SIRT1)” value was “A (EC1.5<1.0 uM)”.
In the case of `COC(=O)c1ccc(NC(=O)c2cccc3ccc(-c4cccc(C(F)(F)F)c4)nc23)o1` [Compound 61], the “% Fold Act. (percent maximum fold activation)” value was “A (Fold activation >200%)” and the “EC1.5 (concentration of test compound that results in 150% activation of SIRT1)” value was “A (EC1.5<1.0 uM)”.
For `CCOC(=O)c1csc(NC(=O)c2cccc3ccc(-c4cccc(C(F)(F)F)c4)nc23)n1` [Compound 91], the “% Fold Act. (percent maximum fold activation)” value was “A (Fold activation >200%)” and the “EC1.5 (concentration of test compound that results in 150% activation of SIRT1)” value was “A (EC1.5<1.0 uM)”.
`O=C(Nc1cccc(OC2CCNC2)c1)c1cccc2ccc(-c3cccc(C(F)(F)F)c3)nc12` (stereo not drawn) [Compound 257] was tested, and the “% Fold Act. (percent maximum fold activation)” value was “A (Fold activation >200%)” and the “EC1.5 (concentration of test compound that results in 150% activation of SIRT1)” value was “A (EC1.5<1.0 uM)”.
With `Cc1nnc(NC(=O)c2cccc3ccc(-c4cccc(N5CCOCC5)c4)nc23)s1` [Compound 252] the “% Fold Act. (percent maximum fold activation)” value was “A (Fold activation >200%)” and the “EC1.5 (concentration of test compound that results in 150% activation of SIRT1)” value was “A (EC1.5<1.0 uM)”.
`O=C(Nc1ccccn1)c1cccc2ccc(-c3cccc(OC(F)(F)F)c3)nc12` [Compound 24] was tested, and the “% Fold Act. (percent maximum fold activation)” value was “A (Fold activation >200%)” and the “EC1.5 (concentration of test compound that results in 150% activation of SIRT1)” value was “A (EC1.5<1.0 uM)”.
In the case of `FC(F)(F)c1ccccc1-c1ccc2cccc(NCc3cccnc3)c2n1` [Compound 162], the “EC1.5 (concentration of test compound that results in 150% activation of SIRT1)” value was “C (EC1.5>25 uM)”.
For `O=C(Nc1cccc2ccc(-c3cccc(OC(F)(F)F)c3)nc12)c1ccccc1` [Compound 19], the “EC1.5 (concentration of test compound that results in 150% activation of SIRT1)” value was “C (EC1.5>25 uM)”.
`Fc1c(-c2ccc3cccc(NCc4cccnc4)c3n2)cccc1C(F)(F)F` [Compound 165] was tested, and the “EC1.5 (concentration of test compound that results in 150% activation of SIRT1)” value was “C (EC1.5>25 uM)”.
`O=C(Nc1cccc2ccc(-c3cccc(C(F)(F)F)c3)nc12)c1cccs1` [Compound 204] was tested, and the “% Fold Act. (percent maximum fold activation)” value was “B (Fold Activation <200%)” and the “EC1.5 (concentration of test compound that results in 150% activation of SIRT1)” value was “B (EC1.5 1-25 uM)”.
In the case of `O=C(Nc1cccc2ccc(-c3ccccc3OCCN3CCOCC3)nc12)c1cscn1` [Compound 175], the “% Fold Act. (percent maximum fold activation)” value was “A (Fold activation >200%)” and the “EC1.5 (concentration of test compound that results in 150% activation of SIRT1)” value was “B (EC1.5 1-25 uM)”.
With `O=S(=O)(Nc1cccc2ccc(-c3cccc(OC(F)(F)F)c3)nc12)N1CCNCC1` [Compound 115] the “% Fold Act. (percent maximum fold activation)” value was “B (Fold Activation <200%)” and the “EC1.5 (concentration of test compound that results in 150% activation of SIRT1)” value was “B (EC1.5 1-25 uM)”.
`O=C(Nc1ccncc1)c1cccc2ccc(-c3cccc(OC(F)(F)F)c3)nc12` [Compound 26] was tested, and the “% Fold Act. (percent maximum fold activation)” value was “A (Fold activation >200%)” and the “EC1.5 (concentration of test compound that results in 150% activation of SIRT1)” value was “B (EC1.5 1-25 uM)”.
With `O=C(Nc1ccccn1)c1cccc2cnc(-c3cccnc3)nc12` [Compound 298] the “EC1.5 (concentration of test compound that results in 150% activation of SIRT1)” value was “C (EC1.5>25 uM)”.
In the case of `O=C(Nc1ncnc2ccc(-c3cccc(OC(F)(F)F)c3)nc12)c1cncs1` [Compound 309], the “% Fold Act. (percent maximum fold activation)” value was “A (Fold activation >200%)” and the “EC1.5 (concentration of test compound that results in 150% activation of SIRT1)” value was “B (EC1.5 1-25 uM)”.
In the case of `O=S(=O)(Nc1cccnc1)Nc1cccc2ccc(-c3cccc(OC(F)(F)F)c3)nc12` [Compound 114], the “EC1.5 (concentration of test compound that results in 150% activation of SIRT1)” value was “C (EC1.5>25 uM)”.
`CN1CCOc2cc(-c3ccc4cccc(NC(=O)c5cscn5)c4n3)ccc21` [Compound 202] was tested, and the “% Fold Act. (percent maximum fold activation)” value was “A (Fold activation >200%)” and the “EC1.5 (concentration of test compound that results in 150% activation of SIRT1)” value was “A (EC1.5<1.0 uM)”.
In the case of `O=C(Nc1nncs1)c1cccc2ccc(-c3cccnc3)nc12` [Compound 234], the “EC1.5 (concentration of test compound that results in 150% activation of SIRT1)” value was “C (EC1.5>25 uM)”.
For `O=C(Nc1ncnc2ccc(-c3cccc(OC(F)(F)F)c3)nc12)c1ccccn1` [Compound 194], the “% Fold Act. (percent maximum fold activation)” value was “A (Fold activation >200%)” and the “EC1.5 (concentration of test compound that results in 150% activation of SIRT1)” value was “A (EC1.5<1.0 uM)”.
For `O=C(Nc1ccccc1)c1cccc2ccc(-c3ccccc3)nc12` [Compound 9], the “% Fold Act. (percent maximum fold activation)” value was “B (Fold Activation <200%)” and the “EC1.5 (concentration of test compound that results in 150% activation of SIRT1)” value was “C (EC1.5>25 uM)”.
With `O=C(Nc1nccs1)c1cccc2ccc(-c3ccc(C(F)(F)F)cc3)nc12` [Compound 96] the “EC1.5 (concentration of test compound that results in 150% activation of SIRT1)” value was “C (EC1.5>25 uM)”.
`O=C(Nc1ccncn1)c1cccc2ccc(-c3cccc(N4CCOCC4)c3)nc12` [Compound 111] was tested, and the “% Fold Act. (percent maximum fold activation)” value was “A (Fold activation >200%)” and the “EC1.5 (concentration of test compound that results in 150% activation of SIRT1)” value was “A (EC1.5<1.0 uM)”.
For `O=C(Nc1cccc2ccc(-c3cccc(CN4CCCC4)c3)nc12)c1cscn1` [Compound 119], the “% Fold Act. (percent maximum fold activation)” value was “A (Fold activation >200%)” and the “EC1.5 (concentration of test compound that results in 150% activation of SIRT1)” value was “A (EC1.5<1.0 uM)”.
In the case of `Cc1cnc(NC(=O)c2cccc3ccc(-c4cccc(N5CCOCC5)c4)nc23)s1` [Compound 239], the “% Fold Act. (percent maximum fold activation)” value was “A (Fold activation >200%)” and the “EC1.5 (concentration of test compound that results in 150% activation of SIRT1)” value was “A (EC1.5<1.0 uM)”.
For `c1cncc(CNc2cccc3ccc(-c4cccc(N5CCCC5)c4)nc23)c1` [Compound 173], the “EC1.5 (concentration of test compound that results in 150% activation of SIRT1)” value was “C (EC1.5>25 uM)”.
With `O=C(Nc1cccc(Cl)n1)c1cccc2ccc(-c3cccc(C(F)(F)F)c3)nc12` [Compound 89] the “EC1.5 (concentration of test compound that results in 150% activation of SIRT1)” value was “C (EC1.5>25 uM)”.
